The results in this text go back to US10328022B2, “Formulations and methods for vaginal delivery of antiprogestins” (REPROS THERAPEUTICS INC., priority 2012, dated 2019).

For series [1], the system named is human females with uterine fibroids. Description: Vaginal administration of pullulan capsules with 12 mg CDB-4124: menses and fibroid symptoms. The format is in vivo. On the procedure: (§1) Capsugel NPcaps® were filled with the excipient fill formulations described above with 12 mg CDB-4124 (telapristone acetate) and administered vaginally to human females with uterine fibroids once per day for a period of 2 weeks to determine the length of time required to reach steady state and overall systemic exposure of the parent compound (CDB-4124) and the primary metabolite (CDB-4453). The capsules were administered using a commercially available vaginal applicator modified by reversing the insert (see FIG. 5). The unmodified applicator comprises a barrel and plunger with the barrel having a relatively wide opening on one end and a relatively narrow opening on the other end. The applicator is designed such that the drug is placed in the end with the larger diameter opening (entrance end), the applicator is inserted into the vagina and the plunger is used to push the drug out the barrel and into the vagina. For insertion of the filled NPcaps, the shell end of the capsule (having a […] diameter) was placed into the narrow opening in the barrel, leaving the cap exposed. […] Pharmacokinetic data was then obtained from patients.
(§2) In a previous oral study, doses of 1, 3, 6, 9 and 12 mg of CDB-4124 were administered for a period of 10 weeks. […] Cessation of menses directly correlates to efficacy of an oral dose in both uterine fibroids and endometriosis. […] Given the overall low exposure of the 12 mg dose, in those women that continued to menstruate, further improvements in reduction of symptoms are expected with longer exposure to the drug. In efficacy studies in which CDB-4124 was administered orally, women experienced a nearly 50% reduction in mean fibroid size at a 25 mg dose. When those women were then escalated to a 50 mg oral dose for an additional four months, fibroid size was reduced to approximately 25% of the initial volume. Based on the assessment of fibroid symptoms as scored by UFSQOL, women on oral CDB-4124 were, in general, symptom free.

The next series relates to uterine fibroids. As to the kind of experiment: Oral efficacy studies of CDB-4124, 25 mg then 50 mg. The format is in vivo, human. On the procedure:
as §2

Series [2] has as its system human females with uterine fibroids. As to the kind of experiment: Previous oral study of CDB-4124, 1, 3, 6, 9 and 12 mg for 10 weeks. The format is in vivo. Here is the method:
as §2

Series [3] relates to New Zealand White rabbits. As to the kind of experiment: Cumulative vaginal mucous membrane irritancy, 10 daily intravaginal doses. In kind it is in vivo, rabbit. On the procedure: Pullulan capsules (Capsugel NPcaps®, size 0) comprising CDB-4124 were administered once daily for 10 consecutive days intravaginally to 10 healthy virgin female New Zealand White rabbits in order to determine the cumulative vaginal mucous membrane irritancy potential and to obtain plasma samples for pharmacokinetic analysis. Five rabbits were assigned to each of two groups, the first dosed with vehicle control (pullulan capsules with 0.5 ml PEG 1000 fill) introduced into the upper vaginal vault of each rabbit using a syringe applicator (Group 1), the second with CDB-4124 (pullulan capsules with 12 mg CDB-4124 in 0.5 ml PEG 1000)(Group 2). The external vaginal mucosa of each animal was examined for erythema, edema and discharge prior to the initial dose, immediately prior to each treatment and prior to sacrifice. All animals were examined for gross pathology.

Series [4] is described as follows: Pharmacokinetics of vaginal pullulan capsules with 12 mg CDB-4124 in women. The format is in vivo, human. Here is the method:
as §1

The mark [5] stands for this setting: 12 mg vaginal, pair-wise comparison of 6 women.
Setting [6] is: 12 mg intravaginally once daily for 10 days.

Take `COCC(=O)[C@@]1(OC(C)=O)CC[C@H]2[C@@H]3CCC4=CC(=O)CCC4=C3[C@@H](c3ccc(N(C)C)cc3)C[C@@]21C` [CDB-4124, 21-methoxy-17α-acetoxy-11β-(4 N,N-dimethylaminophenyl)-19-norpregna-4,9-diene-3,20-dione]: the “Cessation of menses, number of women” value in series [1] (12 mg vaginal once per day, 6 women) is given as 3 women. Also, in series [1] (12 mg vaginal, after only 4 weeks of treatment), the Fibroid related condition entry is reported as “significant improvements”. In series [1] (setting [5]), the “Reduction in menstrual bleeding, Pictorial Blood Loss Assessment Chart (PBAC)” value is listed as “Statistical significance (p<0.05)” and the “Reduction in overall uterine fibroid symptoms, Uterine Fibroid Symptom Quality of Life Survey (UFSQOL)” value was “Statistical significance (p<0.05)”. The “Fibroid size as share of the initial volume” value in the series with uterine fibroids (escalated to 50 mg oral dose for an additional four months) was “approximately 25%”. For the same compound, in the series with uterine fibroids (oral 25 mg dose), the “Reduction in mean fibroid size” value is reported as roughly 50%. For the same compound, the “Fibroid symptoms as scored by UFSQOL” value in the series with uterine fibroids (oral CDB-4124) was “symptom free”. Also, the “Efficacy of the 1 mg oral dose” value in series [2] (oral 1 mg) was “ineffective”. The Tolerability result in series [2] (oral 1, 3, 6, 9 and 12 mg for 10 weeks) is listed as “all doses were well tolerated”. Further, in series [2] (oral, 10 weeks), the “Lowest dose inducing reliable cessation of menses” value is listed as 3 mg. In addition, the “External vaginal mucosa: erythema, edema” value in series [3] (12 mg CDB-4124 in pullulan capsule intravaginally once daily for 10 days) is given as “⅖ rabbits showed very slight erythema and/or edema on 4 occasions”. Besides, in series [3] (setting [6]), the “Gross findings in ovaries, uterus, three sections of the vagina” value was “No gross findings”; the Histopathological findings result is given as “nor were any histopathological findings observed”; the Irritation index result is listed as “none”. Moreover, the “Drug peak after steady state” value in series [4] (12 mg vaginal once per day, women) is listed as “no obvious drug peak”. The “Systemic exposure relative to an equivalent oral dose, based on AUC” value in series [4] (12 mg vaginal versus 12 mg oral, women) is reported as “about ⅙”. In addition, the “Cmax compared with oral doses” value in series [4] (12 mg vaginal versus 1, 3, 6, 9, 12 mg oral, women) is on record as “lower than any of the oral doses”. Moreover, the “Release profile from pullulan capsules” value in series [4] (12 mg vaginal, steady state, 24 hour period, women) is listed as “continuous release of active agents at a substantially constant rate”. Moreover, in series [4] (12 mg vaginal, women), the “Exposure compared with the 1 mg oral dose” value is “only a fraction of the exposure of the ineffective 1 mg oral dose” and the “Maximum exposure relative to the 50 mg oral dose” value is reported as 1/100. Besides, in series [4] (women with uterine fibroids, 12 mg vaginal pullulan capsule once per day), the “Time to steady state concentration” value is “one”.
